Reference: PMC11539071, “Optimization of Biocatalytic Rhododendrol Production from Biogenic Rhododendrol Glycosides” (ACS Sustainable Chemistry & Engineering, 2024)

What was measured:
[1] = biological target: T1, β-glucosidase from almonds; assay: initial rates by HPLC, product inhibition fit; assay type: biochemical, Prunus dulcis; conditions: competitive; substrate betuloside at saturating level; 0.1 M phosphate buffer pH 6, 40 °C
T1 construct: gene emulsin; native commercial enzyme preparation from almonds (Sigma-Aldrich)
Excerpt: initial rates by HPLC, product inhibition fit on β-glucosidase from almonds

[2] = tested on: T1, β-glucosidase from almonds; assay: initial rates by HPLC of rhododendrol, Michaelis-Menten fit; assay type: biochemical, Prunus dulcis; conditions: 0.1 M phosphate buffer pH 6, 40 °C; substrate from crude glycoside mixture containing apiosylrhododendrin
Excerpt: initial rates by HPLC of rhododendrol, Michaelis-Menten fit on β-glucosidase from almonds

Ki [1]	Km [2]	SMILES
7.13 ± 2.2 mM		CC(O)CCc1ccc(O)cc1 (racemic) [rhododendrol]
	26.7 ± 3.76 mM	C[C@H](CCc1ccc(O)cc1)O[C@@H]1O[C@H](CO)[C@@H](O)[C@H](O)[C@H]1O (mixture of isomers) [betuloside]
65.5 ± 17.2 mM		OC[C@H]1OC(O)[C@H](O)[C@@H](O)[C@@H]1O (stereo partly drawn) [glucose]
